Legend:
[1] = system: HeLa cells; assay: Intracellular Ca2+ measurement in HeLa cells with siRNA knockdown of PIEZO1/PIEZO2; assay type: cell-based, human; settings: 10 μM; for Ca2+ response after PIEZO1 depletion / Ca2+ response after PIEZO2 depletion: HeLa cells; for Ca2+ response after PIEZO1 depletion: siPIEZO1; for Ca2+ response after PIEZO2 depletion: siPIEZO2
Experimental: Hela (ATCC Cat #CRM‐CCL‐2, RRID:CVCL_0030) and HEK 293 (ATCC Cat #CRL‐1573, RRID:CVCL_0045) cells were purchased from ATCC and maintained in DMEM supplemented with 10% heat‐inactivated fetal calf serum, 100 U·ml^−1 penicillin and 100 μg·ml^−1 streptomycin (Sigma‐Aldrich).
Cells were transfected using Opti‐MEM™ I Reduced Serum Medium (Thermo Fisher Scientific) and Lipofectamine 2000 (Thermo Fisher Scientific). For transfection of cells in six‐well plates, […] short‐interfering RNA (siRNA) (control siRNA [siCtrl]: Dharmacon ON‐TARGETplus Non‐targeting Control Pool, D‐001810‐10‐05; siRNA targeted to PIEZO2 expression [siPIEZO2]: Dharmacon ON‐TARGETplus SmartPool PIEZO2, L‐013925‐02‐0005; and PIEZO1: Sigma‐Aldrich, GCAAGUUCGUGCGCGGAUU[DT][DT]) and 3 μl of Lipofectamine 2000 complexed in 200 μl of Opti‐MEM were added to 0.8 ml cell culture medium per well. The culture medium was changed 4 h post transfection, and cells were used for experiments 48 h later.
HEK 293‐TREx cells and their stably transfected derivatives or transiently transfected HEK 293 or HeLa cells were seeded at a density of 7.5 × 10^4 cells per well into poly‐D‐lysine‐coated 96‐well plates. The plates were either commercially pre‐coated with poly‐D‐lysine (Greiner Bio‐One #655946) or (Greiner Bio‐One #655090) were coated in‐house with 35 μl of a 10 μg·ml^−1 poly‐D‐lysine (Bio‐Techne, Cultrex # 3439‐100‐01) in sterile deionised water per well for at least 24 h and rinsed three times with 100 μl per well sterile D‐PBS before addition of cells. HUVECs were seeded into tissue culture‐treated 96‐well plates (Greiner Bio‐One #655090) at a density of either 2.5 × 10^4 cells 24 h before experimentation or 1.25 × 10^4 cells 48 h before experimentation. Cells were incubated with 2 μM Fura‐2‐AM (Molecular Probes™) in the presence of 0.01% (wt./vol.) pluronic F127 (Sigma‐Aldrich #P2443) in standard bath solution (SBS) for 1 h at 37°C. Cells were washed with SBS for 30 min at room temperature. Alternatively, if inhibitors were being tested, these were added at this time, immediately following a wash in SBS. (−)‐Englerin A (Akbulut et al., [2015]) was used in SBS containing 0.01% pluronic acid as a dispersing agent to minimise aggregation of compound. Unless otherwise stated, the final concentration of DMSO was 0.2% (vol./vol). Working 2000× stock solutions of test compounds were freshly made in DMSO and diluted 1000‐fold in SBS during the 30 min SBS wash/inhibitor pre‐incubation period to obtain 2× solutions for injection. When testing the highest concentration of Yoda1, KC159 and KC289 (30 μM), the final DMSO concentration was 0.6% (vol./vol.). Measurements were made at room temperature on a 96‐well fluorescence plate reader (FlexStation 3, Molecular Devices, Sunnyvale, CA, USA) controlled by SoftMax Pro software v7.0.3. Recipient wells containing 80 μl SBS/0.2% (vol./vol.) DMSO vehicle or inhibitor compound received 80 μl 2× compound at an injection rate of 1 μl·s^−1, and the pipette introduced liquids from a height setting of 70 μl. No trituration was performed. For recordings using Fura‐2, the change in intracellular Ca was indicated as the ratio of Fura‐2 emission (510 nm) intensities at 340 and 380 nm excitation. Photomultipliers were set to medium sensitivity. SBS contained 130 mM NaCl, 5 mM KCl, 8 mM D‐glucose, 10 mM HEPES, 1.2 mM MgCl2 and 1.5 mM CaCl2, and the pH was adjusted to 7.4 with NaOH. The solution was filtered through a 0.2 μm bottle‐top filter prior to use and handled aseptically thereafter.

[2] = biological target: T1, human TRPC5 (Homo sapiens, UniProt Q9UL62); assay: Intracellular Ca2+ measurement in hTRPC5-TREx cells; assay type: cell-based; settings: 10 μM
T1 construct: expressed in transfected cells
T1 sequence (Q9UL62 1-973): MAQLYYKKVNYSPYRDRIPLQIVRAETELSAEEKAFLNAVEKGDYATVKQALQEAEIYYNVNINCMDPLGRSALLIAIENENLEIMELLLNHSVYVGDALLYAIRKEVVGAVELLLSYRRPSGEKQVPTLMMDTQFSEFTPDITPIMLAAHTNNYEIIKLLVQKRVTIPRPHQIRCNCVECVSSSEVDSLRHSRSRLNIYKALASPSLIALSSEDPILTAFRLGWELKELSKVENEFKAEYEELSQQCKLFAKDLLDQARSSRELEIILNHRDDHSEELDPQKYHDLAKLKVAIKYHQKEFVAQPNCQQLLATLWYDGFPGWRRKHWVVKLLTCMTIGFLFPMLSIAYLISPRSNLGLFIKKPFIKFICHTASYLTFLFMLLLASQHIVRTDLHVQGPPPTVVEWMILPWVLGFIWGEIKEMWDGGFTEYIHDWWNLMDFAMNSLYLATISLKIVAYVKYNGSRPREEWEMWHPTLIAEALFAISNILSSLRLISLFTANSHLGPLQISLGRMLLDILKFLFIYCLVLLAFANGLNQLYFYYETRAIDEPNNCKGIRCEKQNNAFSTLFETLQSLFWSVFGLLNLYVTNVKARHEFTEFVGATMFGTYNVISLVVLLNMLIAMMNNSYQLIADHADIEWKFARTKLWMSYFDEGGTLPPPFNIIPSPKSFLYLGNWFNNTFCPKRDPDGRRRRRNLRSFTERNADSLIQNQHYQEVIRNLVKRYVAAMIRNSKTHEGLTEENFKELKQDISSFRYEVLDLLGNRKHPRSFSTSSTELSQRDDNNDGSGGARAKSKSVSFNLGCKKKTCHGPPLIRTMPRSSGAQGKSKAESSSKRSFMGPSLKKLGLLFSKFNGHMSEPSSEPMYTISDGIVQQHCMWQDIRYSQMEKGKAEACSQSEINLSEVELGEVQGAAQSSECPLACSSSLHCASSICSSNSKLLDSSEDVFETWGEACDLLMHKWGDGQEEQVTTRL
Experimental: HEK T‐REx™ 293 cells stably expressing tetracycline‐regulated human TRPC5 have been described previously (Zeng et al., [2004]). For the TRPC5‐expressing cells, selection was achieved by including 5 μg·ml^−1 blasticidin and 400 μg·ml^−1 zeocin in the cell medium. To induce expression, cells were incubated with 1 μg·ml^−1 tetracycline for 24 h prior to experiments. These cells are referred to as hTRPC5‐TREx.
HEK 293‐TREx cells and their stably transfected derivatives or transiently transfected HEK 293 or HeLa cells were seeded at a density of 7.5 × 10^4 cells per well into poly‐D‐lysine‐coated 96‐well plates. The plates were either commercially pre‐coated with poly‐D‐lysine (Greiner Bio‐One #655946) or (Greiner Bio‐One #655090) were coated in‐house with 35 μl of a 10 μg·ml^−1 poly‐D‐lysine (Bio‐Techne, Cultrex # 3439‐100‐01) in sterile deionised water per well for at least 24 h and rinsed three times with 100 μl per well sterile D‐PBS before addition of cells. HUVECs were seeded into tissue culture‐treated 96‐well plates (Greiner Bio‐One #655090) at a density of either 2.5 × 10^4 cells 24 h before experimentation or 1.25 × 10^4 cells 48 h before experimentation. Cells were incubated with 2 μM Fura‐2‐AM (Molecular Probes™) in the presence of 0.01% (wt./vol.) pluronic F127 (Sigma‐Aldrich #P2443) in standard bath solution (SBS) for 1 h at 37°C. Cells were washed with SBS for 30 min at room temperature. Alternatively, if inhibitors were being tested, these were added at this time, immediately following a wash in SBS. (−)‐Englerin A (Akbulut et al., [2015]) was used in SBS containing 0.01% pluronic acid as a dispersing agent to minimise aggregation of compound. Unless otherwise stated, the final concentration of DMSO was 0.2% (vol./vol). […] Measurements were made at room temperature on a 96‐well fluorescence plate reader (FlexStation 3, Molecular Devices, Sunnyvale, CA, USA) controlled by SoftMax Pro software v7.0.3. […]

SMILES	Ca2+ elevations in HeLa cells [1]	Ca2+ response after PIEZO1 depletion [1]	Ca2+ response after PIEZO2 depletion [1]	Ca2+ response in cells expressing TRPC5 in place of PIEZO1 [2]
O=C([O-])c1ccc(-c2nnc(SCc3c(Cl)cccc3Cl)s2)cc1.[K+] [KC289]	evoked Ca^2+ elevations	partly suppressed	partly suppressed	fail to evoke responses
O=C(O)c1ccc(-c2nnc(SCc3c(Cl)cccc3Cl)s2)cc1 [KC159]	evoked Ca^2+ elevations	partly suppressed	partly suppressed	fail to evoke responses
Clc1cccc(Cl)c1CSc1nnc(-c2cnccn2)s1 [Yoda1, 2‐[5‐[[(2,6‐dichlorophenyl)methyl]thio]‐1,3,4‐thiadiazol‐2‐yl]pyrazine]	evoked Ca^2+ elevations	partly suppressed	partly suppressed	fail to evoke responses
